“And” between values parts separate entries of the source, which are not always exact repeats. Identical values can stand only once. Each block holds one molecule with its values, some of them ahead of it.
Target: T1, human Branched Chain Amino Acid Aminotransferase cytosolic form (hBCATc) (Homo sapiens, UniProt P54687)
T1 construct: inferred from purification on a Ni-charged chelating column with imidazole elution; made in house; host or cells: E. coli BL21(DE3)
T1 sequence (P54687 1-386): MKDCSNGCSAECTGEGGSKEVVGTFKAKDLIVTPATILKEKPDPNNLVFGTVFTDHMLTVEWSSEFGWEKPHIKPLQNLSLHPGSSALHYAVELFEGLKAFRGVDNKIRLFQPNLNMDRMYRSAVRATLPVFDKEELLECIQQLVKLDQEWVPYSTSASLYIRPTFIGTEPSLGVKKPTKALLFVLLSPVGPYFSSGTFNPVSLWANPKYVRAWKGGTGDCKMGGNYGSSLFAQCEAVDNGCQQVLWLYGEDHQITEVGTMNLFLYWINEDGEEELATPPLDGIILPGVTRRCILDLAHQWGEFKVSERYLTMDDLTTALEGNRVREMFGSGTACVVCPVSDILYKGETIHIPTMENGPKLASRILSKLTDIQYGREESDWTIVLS
Test: In vitro coupled enzyme assay, hBCATc
Format: biochemical
Settings: 37° C., 25 mM phosphate buffer pH 7.8; coupled glutamate dehydrogenase assay; read-out: hBCATc I50
Protocol: In vitro enzyme assay—human Branched Chain Amino Acid Aminotransferase cytosolic form (hBCATc) and mitochondrial form (hBCATm) were assayed at 37° C. in 25 mM phosphate buffer pH 7.8. In addition, 2 mM DTT and 12.5 mM EDTA were added to the assay mixture. A coupling enzyme assay was used to monitor the production of glutamate. The formation of NADH from NAD+at […] was followed on a 96-well plate Molecular Devices plate reader. The following components were used in this coupled assay: 4 mM ADP, 1 mM NAD+, 750 μM L-Leucine, 500 μM (α-ketoglutarate, 10 μM pyridoxal phosphate, 1 unit glutamate dehydrogenase, and 1.25 μg of the appropriate BCAT enzyme. Inhibitions by compounds were assayed by adding various concentrations to this coupled assay procedure as a DMSO stock up to a 5% v/v DMSO/buffer ratio. Data is shown in Table 1.
Enzyme Preparation—humanBCATc was expressed in BL21(DE3) cells. A growing culture of cells was induced with 1 mM IPTG at room temperature overnight. These cells were harvested by centrifugation at 10,000 g for 20 minutes. The supernatant was discarded, and the cells were stored at −80° C. until needed. The protein was purified by the following method. The cell paste was resuspended in extraction buffer (0.1 M phosphate, pH 8.0, with 0.01 M Tris-HCL and 5 mM TCEP and then lysed on a French Press at 1000 psi. The lysate was centrifuged at 10,000 g for 15 minutes, and the pellet was discarded. The supernatant was loaded onto a Hitrap Chelating column previously charged with 0.1 M NiSO4 and washed with 3 to 4 column volumes of extraction buffer. The column was then washed with 0.01 Tris, pH 7.5, 10% glycerol, 150 mM NaCl, 5 mM TCEP for two column volumes. The column was then further washed with two column volumes of 0.1 M phosphate, pH 6.0, 0.01 M Tris, 10% glycerol and 750 mM NaCl. Finally, the column was washed with two column volumes of the same buffer plus 50 mM imidazole. The BCAT enzyme was then eluted with the same buffer but with 350 mM imidazole. The eluant was then dialyzed overnight against 10 mM phosphate buffer pH 8.0, 10% glycerol, and 5 mM TCEP. The dialyzed protein was then loaded onto a Q-sepharose column and eluted using a salt gradient. Active fractions were collected and further purified on a Superose-12 column to yield pure BCAT protein.

SMILES: CCOC(=O)/C=C1\SC(Nc2c(Cl)cccc2Cl)=NC1=O [Example 2, [2-(2,6-Dichloro-phenylamino)-4-oxo-4H-thiazol-5-ylidene]-acetic Acid Ethyl Ester]
IC50: 52.5 µM

SMILES: CC(C)(C)OC(=O)/C=C1\SC(Nc2c(Cl)cccc2Cl)=NC1=O [Example 3, [2-(2,6-Dichloro-phenylamino)-4-oxo-4H-thiazol-5-ylidene]-acetic Acid Tert-butyl Ester]
IC50: 68.6 µM and 36.9 µM

SMILES: COC(=O)/C=C1\SC(Nc2ccccc2C)=NC1=O [Example 4, [2-(2-Methyl-phenylamino)-4-oxo-4H-thiazol-5-ylidene]-acetic Acid Methyl Ester]
IC50: 43.9 µM and 29.6 µM

SMILES: CNC(=O)/C=C1\SC(Nc2c(Cl)cccc2Cl)=NC1=O [Example 6, [2-(2,6-Dichloro-phenylamino)-4-oxo-4H-thiazol-5-ylidene]-N-methyl-acetamide]
IC50: 3.1 µM and 1.9 µM

SMILES: CCNC(=O)/C=C1\SC(Nc2c(Cl)cccc2Cl)=NC1=O [Example 7, [2-(2,6-Dichloro-phenylamino)-4-oxo-4H-thiazol-5-ylidene]-N-ethyl-acetamide]
IC50: 13.1 µM and 3.15 µM

SMILES: CCCNC(=O)/C=C1\SC(Nc2c(Cl)cccc2Cl)=NC1=O [Example 8, [2-(2,6-Dichloro-phenylamino)-4-oxo-4H-thiazol-5-ylidene]-N-propyl-acetamide]
IC50: 35.7 µM and 17.4 µM

SMILES: CONC(=O)/C=C1\SC(Nc2c(Cl)cccc2Cl)=NC1=O [Example 10, [2-(2,6-Dichloro-phenylamino)-4-oxo-4H-thiazol-5-ylidene]-N-methoxy-acetamide]
IC50: 31.7 µM

SMILES: COCCNC(=O)/C=C1\SC(Nc2c(Cl)cccc2Cl)=NC1=O [Example 16, 2-[2-(2,6-Dichloro-phenylamino)-4-oxo-4H-thiazol-5-ylidene]-N-(2-methoxy-ethyl)-acetamide]
IC50: 82.7 µM

SMILES: CCN1CCN(C(=O)/C=C2\SC(Nc3c(Cl)cccc3Cl)=NC2=O)CC1 [Example 18, 2-(2,6-Dichloro-phenylamino)-5-[2-(4-ethyl-piperazin-1-yl)-2-oxo-ethylidene)-thiazol-4-one]
IC50: 64.1 µM

SMILES: O=C(/C=C1\SC(Nc2c(Cl)cccc2Cl)=NC1=O)NCCCN1CCCC1 [Example 19, 2-[2-(2,6-Dichloro-phenylamino)-4-oxo-4H-thiazol-5-ylidene]-N-(3-pyrrolidin-1-yl-propyl)-acetamide]
IC50: 55 µM

SMILES: CC(C)NC(=O)/C=C1\SC(Nc2c(Cl)cccc2Cl)=NC1=O [Example 20, 2-[2-(2,6-Dichloro-phenylamino)-4-oxo-4H-thiazol-5-ylidene]-N-isopropyl-acetamide]
IC50: 65.9 µM

SMILES: COC(CNC(=O)/C=C1\SC(Nc2c(Cl)cccc2Cl)=NC1=O)OC [Example 23, 2-[2-(2,6-Dichloro-phenylamino)-4-oxo-4H-thiazol-5-ylidene]-N-(2,2-dimethoxy-ethyl)-acetamide]
IC50: 39.8 µM

Other lines, results leading:

IC50: 4.1 µM
SMILES: COC(=O)/C=C1\SC(Nc2c(Cl)cccc2Cl)=NC1=O [Example 1, [2-(2,6-Dichloro-phenylamino)-4-oxo-4H-thiazol-5-ylidene]-acetic Acid Methyl Ester]

IC50: 12.8 µM
SMILES: O=C1N=C(Nc2c(Cl)cccc2Cl)S/C1=C\C(=O)N1CCCCC1 [Example 17, 2-(2,6-Dichloro-phenylamino)-5-(2-oxo-2-piperidine-1-yl-ethylidene)-thiazol-4-one]

IC50: 13.8 µM
SMILES: O=C1N=C(Nc2c(Cl)cccc2Cl)S/C1=C\C(=O)N1CCCC1 [Example 21, 2-(2,6-Dichloro-phenylamino)-5-(2-oxo-2-pyrrolidin-1-yl-ethylidene)-thiazol-4-one]

IC50: 22.6 µM
SMILES: O=C(/C=C1\SC(Nc2c(Cl)cccc2Cl)=NC1=O)NC1CCCCC1 [Example 22, N-Cyclohexyl-2-[2-(2,6-dichloro-phenylamino)-4-oxo-4H-thiazol-5-ylidene]-acetamide]

IC50: 8.97 µM
SMILES: CC1CC(C)CN(C(=O)/C=C2\SC(Nc3c(Cl)cccc3Cl)=NC2=O)C1 (centres unmarked) [Example 24, 2-(2,6-Dichloro-phenylamino)-5-[2-(3,5-dimethyl-piperidin-1-yl)-2-oxo-ethylidene)-thiazol-4-one]

— patent publication US6632831B2, “Branched chain amino acid-dependent aminotransferase inhibitors and their use in the treatment of neurodegenerative diseases” (Pfizer Inc., priority 2001, dated 2003)
